Values joined by “and” are separate entries in the source; they are usually repeats but may differ in a detail not shown here. Equal entries are not always repeated. Where two headings read alike, the source gives them in different places.
Key:
Aurora-2 (Aurora A) = molecular target: T1, Aurora-2 (Aurora A) (Homo sapiens, UniProt O14965); experiment: Aurora-2 (Aurora A) inhibition assay, coupled enzyme; assay type: biochemical
T1 sequence (O14965 1-403): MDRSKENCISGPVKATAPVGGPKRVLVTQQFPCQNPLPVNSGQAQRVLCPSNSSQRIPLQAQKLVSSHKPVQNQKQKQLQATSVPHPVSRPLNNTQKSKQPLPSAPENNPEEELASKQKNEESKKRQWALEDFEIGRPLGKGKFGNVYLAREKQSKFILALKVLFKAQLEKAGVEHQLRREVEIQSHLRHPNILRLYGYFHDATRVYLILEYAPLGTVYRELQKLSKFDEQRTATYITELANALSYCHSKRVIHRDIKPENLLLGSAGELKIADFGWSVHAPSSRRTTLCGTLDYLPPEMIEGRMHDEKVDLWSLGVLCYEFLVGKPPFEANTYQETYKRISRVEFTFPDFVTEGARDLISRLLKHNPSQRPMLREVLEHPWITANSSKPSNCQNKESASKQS
How it was run: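 These rates came from NADH consumption coupled through pyruvate kinase and lactate dehydrogenase (100 mM Hepes pH 7.5, 10 mM MgCl2, 300 μM NADH). Aurora-2 was present at 40 nM, and the reaction ran at 30 °C after a 10 min preincubation.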

JAK3 = molecular target: T2, JAK3 (Homo sapiens, UniProt P52333); experiment: biochemical
T2 sequence (P52333 1-1124): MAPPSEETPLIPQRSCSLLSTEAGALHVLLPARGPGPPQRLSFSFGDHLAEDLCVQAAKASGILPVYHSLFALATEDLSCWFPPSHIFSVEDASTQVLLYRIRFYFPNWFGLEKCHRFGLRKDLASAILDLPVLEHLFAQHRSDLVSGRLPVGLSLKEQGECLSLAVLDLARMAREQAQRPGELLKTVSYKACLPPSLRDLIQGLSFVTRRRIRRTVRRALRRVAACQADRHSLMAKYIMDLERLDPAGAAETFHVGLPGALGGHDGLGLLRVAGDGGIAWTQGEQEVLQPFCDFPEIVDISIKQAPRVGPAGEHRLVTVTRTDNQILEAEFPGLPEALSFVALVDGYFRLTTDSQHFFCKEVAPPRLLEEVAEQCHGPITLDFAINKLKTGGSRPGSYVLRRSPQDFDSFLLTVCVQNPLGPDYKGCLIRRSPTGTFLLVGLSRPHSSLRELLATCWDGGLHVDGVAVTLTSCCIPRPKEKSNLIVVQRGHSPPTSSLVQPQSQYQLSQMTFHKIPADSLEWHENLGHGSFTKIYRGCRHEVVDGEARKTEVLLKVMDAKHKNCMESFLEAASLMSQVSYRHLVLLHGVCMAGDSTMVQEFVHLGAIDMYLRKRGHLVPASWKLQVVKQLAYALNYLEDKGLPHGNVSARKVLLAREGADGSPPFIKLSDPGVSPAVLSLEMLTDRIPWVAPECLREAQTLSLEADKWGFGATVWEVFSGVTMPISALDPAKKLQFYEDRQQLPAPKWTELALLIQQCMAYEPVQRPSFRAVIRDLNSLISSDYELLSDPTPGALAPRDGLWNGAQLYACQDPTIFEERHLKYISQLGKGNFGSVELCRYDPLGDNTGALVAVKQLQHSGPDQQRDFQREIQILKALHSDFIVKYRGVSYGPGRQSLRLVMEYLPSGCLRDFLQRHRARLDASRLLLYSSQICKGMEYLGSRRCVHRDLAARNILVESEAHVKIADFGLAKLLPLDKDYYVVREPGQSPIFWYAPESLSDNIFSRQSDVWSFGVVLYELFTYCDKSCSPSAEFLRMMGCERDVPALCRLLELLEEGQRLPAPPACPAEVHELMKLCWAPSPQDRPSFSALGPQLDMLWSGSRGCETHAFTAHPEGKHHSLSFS

Colo205 cells = experiment: Analysis of cell proliferation and viability; assay type: cell-based; settings: Homo sapiens, COLO 205, Colo205 cells, read-out: IC50 value
Aurora-1 (Aurora B) = Aurora-1 (Aurora B) (Homo sapiens, UniProt Q96GD4); experiment: Aurora-1 (Aurora B) inhibition assay (radiometric); assay type: biochemical; settings: read-out: Aurora B kinase Ki value
How it was run: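 Ki values come from non-linear regression of background-corrected initial-rate data. The enzyme was preincubated 10 min at 25° C with compound, then reacted 3 h with 800 μM (final) [γ-^33P]-ATP in HEPES pH 7.5/MgCl2/BSA/glycerol buffer. The reaction was stopped with phosphoric acid and substrate-bound ^33P counted on phosphocellulose.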

[1] = read-out: Aurora A kinase Ki value

Sequence of Aurora-1 (Aurora B) (Q96GD4 whole entry): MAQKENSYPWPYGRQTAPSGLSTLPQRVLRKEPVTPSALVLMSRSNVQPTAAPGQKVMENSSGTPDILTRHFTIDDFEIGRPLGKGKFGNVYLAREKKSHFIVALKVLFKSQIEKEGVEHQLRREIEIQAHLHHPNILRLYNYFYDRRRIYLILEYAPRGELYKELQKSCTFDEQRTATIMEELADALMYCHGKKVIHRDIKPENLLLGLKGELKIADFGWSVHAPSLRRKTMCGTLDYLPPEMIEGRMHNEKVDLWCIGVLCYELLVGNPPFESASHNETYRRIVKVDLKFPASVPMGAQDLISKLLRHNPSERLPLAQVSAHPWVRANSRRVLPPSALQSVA

Row | SMILES | Ki (Aurora-2 (Aurora A); [1]) [nM] | Ki (JAK3; read-out: JAK3 Ki value) [nM] | IC50 (Colo205 cells; incubated for 72 hours) [nM] | Ki (Aurora-1 (Aurora B)) | Ki (JAK3) [nM] | Ki (Aurora-2 (Aurora A)) [nM] | IC50 (Colo205 cells; incubated for 96 hours) [nM]
1 | Cc1cc(Nc2cc(N3CCC3)nc(Sc3ccc(NC(=O)C(F)(F)F)cc3)n2)[nH]n1 [Compound 158] | 1 to 5 | ≤ 10 | > 200 | ≤ 10 nM | – | – | –
2 | Cc1cc(Nc2cc(N3CC(N4CCCC4)C3)nc(Sc3ccc4ncccc4c3)n2)n[nH]1 [Compound 159] | 1 to 5 | – | ≤ 30 | ≤ 10 nM | ≤ 10 | – | –
3 | Cc1cc(Nc2cc(N3CC(N4CC[C@H](F)C4)C3)nc(Sc3ccc4ncccc4c3)n2)n[nH]1 [Compound 160] | – | ≤ 10 | ≤ 30 | ≤ 10 nM | – | ≤ 1 | –
4 | Cc1cc(Nc2cc(N3CCC3)nc(Sc3ccc(NC(=O)c4ccc(Cl)cc4Cl)cc3)n2)n[nH]1 [Compound 162] | – | – | – | 10 to 50 nM and < 25 nM | 10 to 500 | ≤ 1 | 50 to 1000
5 | Cc1cc(Nc2cc(N3CCC3)nc(Sc3ccc(NC(=O)c4nccn4C)cc3)n2)n[nH]1 [Compound 166] | 5 to 200 | 10 to 500 | – | 50 to 2000 nM | – | – | > 1000
6 | Cc1cc(Nc2cc(N3CCC3)nc(Sc3ccc(NC(=O)c4ocnc4C)cc3)n2)n[nH]1 [Compound 167] | 5 to 200 | – | – | 50 to 2000 nM | 10 to 500 | – | > 1000
7 | Cc1cc(Nc2cc(N3CC(F)(C4CC4)C3)nc(Sc3ccc(-c4ncc(C)o4)cc3)n2)[nH]n1 [Compound 175] | 5 to 200 | – | > 200 | 50 to 2000 nM | 10 to 500 | – | –
8 | Cc1ccc2cc(Sc3nc(Nc4cc(C)[nH]n4)cc(N4CC(N5CCCC5)C4)n3)ccc2n1 [Compound 182] | 1 to 5 | – | ≤ 30 | 10 to 50 nM and < 25 nM | 10 to 500 | – | –
9 | CC(=O)Nc1cccc(Sc2nc(Nc3cc(C)n[nH]3)cc(N3CC(F)(C4CC4)C3)n2)c1 [Compound 188] | 5 to 200 | 10 to 500 | > 200 | 10 to 50 nM | – | – | –
10 | Cc1cc(Nc2cc(N3CC(F)(C4CC4)C3)nc(Sc3ccc4nc(C(F)(F)F)cn4c3)n2)[nH]n1 [Compound 190] | 1 to 5 | 10 to 500 | 30 to 200 | 10 to 50 nM | – | – | –
11 | Cc1cc(Nc2cc(N3CC(N4CCOCC4)C3)nc(Sc3ccc(NC(=O)C4(C(F)(F)F)CC4)cc3)n2)[nH]n1 [Compound 191] | ≤ 1 | 10 to 500 | ≤ 30 | ≤ 10 nM | – | – | –
12 | Cc1ccc2cc(Sc3nc(Nc4cc(C)[nH]n4)cc(N4CC(C5CCC(F)C5)C4)n3)ccc2n1 (centres unmarked) [Compound 198] | 1 to 5 | 10 to 500 | ≤ 30 | 10 to 50 nM and < 25 nM | – | – | –
13 | Cc1cc(Nc2cc(N3CC(N4CCOCC4)C3)nc(Sc3ccc(NC(=O)CC(F)(F)F)cc3)n2)[nH]n1 [Compound 199] | ≤ 1 | ≤ 10 | ≤ 30 | ≤ 10 nM | – | – | –
14 | Cc1cc(Nc2cc(N3CC(F)(C4CC4)C3)nc(Sc3ccc4nc(C(F)(F)F)[nH]c4c3)n2)[nH]n1 [Compound 202] | 1 to 5 | – | 30 to 200 | 10 to 50 nM and < 25 nM | ≤ 10 | – | –
